Source: PMC6886523 (Nature chemical biology, 2017)
Values after ≈ are worked out from the molar mass of the structure shown.

Experiments:
in vitro [1] = conditions: mouse, hepatocytes
GAPDH = GAPDH counter-check in coupled fluorescence assay; conditions: fluorescence assay conditions
[2] = ref PubChem compound ID 54650477; cited from earlier work
TrpAB = TrpAB (Mycobacterium tuberculosis, UniProt P9WFX9+P9WFY1); type: biochemical
in vitro [3] = conditions: mouse, microsomes
Mtb TrpAB [4] = molecular target: T1, Mtb TrpAB (Mycobacterium tuberculosis, UniProt P9WFX9+P9WFY1)
T1 sequence (P9WFY1 whole entry): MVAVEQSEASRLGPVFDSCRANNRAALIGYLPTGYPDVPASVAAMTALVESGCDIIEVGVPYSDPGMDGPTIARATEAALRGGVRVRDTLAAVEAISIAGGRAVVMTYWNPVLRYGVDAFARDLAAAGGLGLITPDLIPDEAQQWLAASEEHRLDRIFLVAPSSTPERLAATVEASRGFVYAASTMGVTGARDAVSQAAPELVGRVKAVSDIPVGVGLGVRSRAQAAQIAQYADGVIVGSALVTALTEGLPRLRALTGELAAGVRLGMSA
T1 sequence (P9WFX9 12-421): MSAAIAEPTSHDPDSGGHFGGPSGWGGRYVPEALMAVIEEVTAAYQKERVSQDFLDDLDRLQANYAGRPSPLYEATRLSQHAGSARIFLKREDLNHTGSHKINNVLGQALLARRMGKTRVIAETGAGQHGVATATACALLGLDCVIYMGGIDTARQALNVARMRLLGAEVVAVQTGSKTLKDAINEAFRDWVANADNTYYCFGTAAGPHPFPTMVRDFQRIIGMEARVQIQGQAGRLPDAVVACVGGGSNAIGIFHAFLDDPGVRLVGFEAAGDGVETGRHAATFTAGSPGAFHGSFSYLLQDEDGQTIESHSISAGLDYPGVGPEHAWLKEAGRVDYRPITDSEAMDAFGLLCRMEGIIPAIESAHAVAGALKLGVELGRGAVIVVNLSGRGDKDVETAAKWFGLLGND

M. marinum = assay: Zebrafish embryo infection, wild-type M. marinum; type: in vivo, Danio rerio (zebrafish); conditions: after 5 d of treatment
Mtb TrpAB [5] = molecular target: T1, Mtb TrpAB; type: biochemical
Mtb TrpAB [6] = molecular target: T1, Mtb TrpAB; type: biochemical; remark: listed apart in the source
Mtb in J774 macrophages = type: cell-based; conditions: day 3 CFU/day 0 CFU
Mtb [7] = assay: microbe, parasite or virus in culture; type: cell-based
[8] = test system: panel of Gram-negative and Gram-positive bacterial species; type: cell-based
Mtb [9] = type: cell-based, Mycobacterium tuberculosis
Mtb TrpAB [10] = molecular target: T1, Mtb TrpAB; type: binding

Sequence of TrpAB (P9WFX9 12-421): as above
Sequence of TrpAB (P9WFY1 whole entry): as the sequence (P9WFY1 whole entry) above

N#C[C@@H]1N[C@@H](CO)[C@H]1c1ccc(-c2ccccc2F)cc1 [BRD4592, (2R,3S,4R)-3-(2′-fluoro-[1,1′-biphenyl]-4-yl)-4-(hydroxymethyl)azetidine-2-carbonitrile]
hepatocyte CLint at 1 μM (in vitro [1]): 47.2 µL/min/1e6 cells
inhibition of GAPDH activity (GAPDH): not found to inhibit
activity in 36 screens reported in PubChem [2]: no activity
reversibility of inhibition (TrpAB): reversible inhibitor
microsomal CLint at 1 μM (in vitro [3]): 336 µL/min/mg
Tm of TrpAB with compound (Mtb TrpAB [4]): 81.6 ± 0.2 °C
increase of Tm of TrpAB in active β^C conformation (Mtb TrpAB [4]): 8 °C
stabilization of the open conformation (Mtb TrpAB [4]): did not stabilize
restriction of M. marinum growth in zebrafish embryos compared to DMSO (M. marinum): ~ 1.5 logs
initial inhibition of the β-reaction (Mtb TrpAB [5]): more than 200 fold
kcat^β under saturating compound (Mtb TrpAB [5]): 0.00433 ± 0.00017 s⁻¹
mode of inhibition with respect to indole (Mtb TrpAB [5]): uncompetitive
rate of L-Trp production slower than uninhibited enzyme (Mtb TrpAB [5]): 750 times
initial inhibition of the α-reaction (Mtb TrpAB [6]): more than 200 fold
kcat^α under saturating compound (Mtb TrpAB [6]): 0.0013 ± 0.00017 s⁻¹
mode of inhibition versus IGP (Mtb TrpAB [6]): uncompetitive
mode of inhibition versus L-Ser (Mtb TrpAB [6]): mixed-type inhibitor
α value (mixed-type inhibition) (Mtb TrpAB [6]): 0.81 ± 0.06
α values (mixed model) (Mtb TrpAB [6]): < 0.00001
restriction of Mtb growth in macrophages compared to DMSO (Mtb in J774 macrophages): eight-fold
effect of L-Trp addition to growth medium on lethal effects (Mtb [7]; 1 mM L-Trp supplementation): rescued
MIC90 (Mtb [7]; Mycobacterium tuberculosis, read-out: MIC90 (minimal concentration needed to inhibit 90% of bacterial growth)): 3 µM (≈ 0.847 µg/mL)
activity among the stereoisomers of the azetidine (Mtb [7]; three stereogenic centers, eight stereoisomeric forms): only the BRD4592 stereoisomer was active
spectrum of activity against bacterial species [8]: active against several mycobacterial species but not other bacteria tested
reduction of colony-forming units (CFUs) of Mtb cultures (Mtb [9]): 2–3 logs
increase in affinity of TrpAB for L-Trp (Mtb TrpAB [10]): 4.5 fold
